Source: paper PMC6928743, “3’-O-Methylorobol Inhibits the Voltage-Gated Sodium Channel Nav1.7 with Anti-Itch Efficacy in A Histamine-Dependent Itch Mouse Model” (International Journal of Molecular Sciences, 2019)

Columns and labels:
Assay type in all cases: cell-based
[1] = target: T1, Nav1.7 (Homo sapiens, UniProt Q15858); assay: whole-cell voltage-clamp in CHO cells stably expressing hNav1.[…]
T1 construct: gene SCN9A

[2] = target: T2, Nav1.8 (Mus musculus, UniProt Q6QIY3); assay: whole-cell voltage-clamp in ND7/[…] cells transiently expressing mNav1.[…], single concentration […]
T2 construct: gene Scn10a
T2 sequence (Q6QIY3 whole entry): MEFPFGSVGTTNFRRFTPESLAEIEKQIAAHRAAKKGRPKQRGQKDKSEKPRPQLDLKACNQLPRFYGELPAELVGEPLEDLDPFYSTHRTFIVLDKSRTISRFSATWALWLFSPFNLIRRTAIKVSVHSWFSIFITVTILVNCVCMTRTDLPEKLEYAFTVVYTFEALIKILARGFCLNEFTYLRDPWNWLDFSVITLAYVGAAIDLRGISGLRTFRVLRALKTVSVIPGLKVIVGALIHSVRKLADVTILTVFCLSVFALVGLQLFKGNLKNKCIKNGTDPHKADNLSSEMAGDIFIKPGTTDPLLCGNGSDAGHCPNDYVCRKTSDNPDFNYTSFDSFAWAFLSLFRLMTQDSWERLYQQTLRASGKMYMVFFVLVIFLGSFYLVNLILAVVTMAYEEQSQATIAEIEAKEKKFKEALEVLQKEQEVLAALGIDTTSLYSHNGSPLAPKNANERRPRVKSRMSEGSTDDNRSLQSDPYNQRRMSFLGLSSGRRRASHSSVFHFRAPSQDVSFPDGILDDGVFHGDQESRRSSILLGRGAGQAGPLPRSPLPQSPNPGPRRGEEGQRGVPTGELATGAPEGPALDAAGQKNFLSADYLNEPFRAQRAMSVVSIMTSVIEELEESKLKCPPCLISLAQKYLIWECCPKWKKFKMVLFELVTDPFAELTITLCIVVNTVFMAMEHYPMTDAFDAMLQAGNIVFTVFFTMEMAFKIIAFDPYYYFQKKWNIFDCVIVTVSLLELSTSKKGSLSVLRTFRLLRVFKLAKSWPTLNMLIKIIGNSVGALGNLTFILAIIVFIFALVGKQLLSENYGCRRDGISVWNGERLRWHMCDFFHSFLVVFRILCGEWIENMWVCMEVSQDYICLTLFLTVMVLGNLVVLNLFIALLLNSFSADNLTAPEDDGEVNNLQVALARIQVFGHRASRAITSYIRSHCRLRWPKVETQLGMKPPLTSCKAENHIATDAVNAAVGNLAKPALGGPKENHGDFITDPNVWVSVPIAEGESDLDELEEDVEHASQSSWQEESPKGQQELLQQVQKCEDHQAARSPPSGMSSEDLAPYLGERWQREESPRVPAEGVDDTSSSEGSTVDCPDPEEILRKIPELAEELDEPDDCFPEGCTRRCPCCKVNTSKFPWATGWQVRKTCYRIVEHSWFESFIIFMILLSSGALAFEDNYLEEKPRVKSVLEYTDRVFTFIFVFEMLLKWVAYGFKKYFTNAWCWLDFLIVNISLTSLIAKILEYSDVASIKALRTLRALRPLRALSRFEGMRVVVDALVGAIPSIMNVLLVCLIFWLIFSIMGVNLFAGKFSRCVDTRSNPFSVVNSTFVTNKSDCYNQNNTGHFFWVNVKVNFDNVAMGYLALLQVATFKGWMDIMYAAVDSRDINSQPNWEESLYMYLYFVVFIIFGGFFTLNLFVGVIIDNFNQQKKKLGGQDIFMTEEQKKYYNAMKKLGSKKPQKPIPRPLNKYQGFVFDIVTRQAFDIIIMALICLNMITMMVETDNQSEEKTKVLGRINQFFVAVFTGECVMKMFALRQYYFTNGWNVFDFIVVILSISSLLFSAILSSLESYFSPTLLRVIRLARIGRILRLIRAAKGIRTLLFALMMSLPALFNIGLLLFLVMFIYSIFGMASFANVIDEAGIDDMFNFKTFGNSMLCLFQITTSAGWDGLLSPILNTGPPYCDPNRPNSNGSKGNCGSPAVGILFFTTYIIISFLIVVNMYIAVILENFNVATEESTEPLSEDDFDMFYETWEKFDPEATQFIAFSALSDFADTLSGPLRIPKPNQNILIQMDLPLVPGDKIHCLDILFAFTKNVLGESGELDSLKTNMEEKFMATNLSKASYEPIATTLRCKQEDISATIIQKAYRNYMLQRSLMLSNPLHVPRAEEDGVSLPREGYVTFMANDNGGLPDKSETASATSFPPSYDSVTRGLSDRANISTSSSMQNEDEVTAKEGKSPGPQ

[3] = target: T3, Nav1.6 (Homo sapiens, UniProt Q9UQD0); assay: whole-cell voltage-clamp in CHO cells stably expressing hNav1.[…], single concentration […]
T3 construct: gene SCN8A
T3 sequence (Q9UQD0 whole entry): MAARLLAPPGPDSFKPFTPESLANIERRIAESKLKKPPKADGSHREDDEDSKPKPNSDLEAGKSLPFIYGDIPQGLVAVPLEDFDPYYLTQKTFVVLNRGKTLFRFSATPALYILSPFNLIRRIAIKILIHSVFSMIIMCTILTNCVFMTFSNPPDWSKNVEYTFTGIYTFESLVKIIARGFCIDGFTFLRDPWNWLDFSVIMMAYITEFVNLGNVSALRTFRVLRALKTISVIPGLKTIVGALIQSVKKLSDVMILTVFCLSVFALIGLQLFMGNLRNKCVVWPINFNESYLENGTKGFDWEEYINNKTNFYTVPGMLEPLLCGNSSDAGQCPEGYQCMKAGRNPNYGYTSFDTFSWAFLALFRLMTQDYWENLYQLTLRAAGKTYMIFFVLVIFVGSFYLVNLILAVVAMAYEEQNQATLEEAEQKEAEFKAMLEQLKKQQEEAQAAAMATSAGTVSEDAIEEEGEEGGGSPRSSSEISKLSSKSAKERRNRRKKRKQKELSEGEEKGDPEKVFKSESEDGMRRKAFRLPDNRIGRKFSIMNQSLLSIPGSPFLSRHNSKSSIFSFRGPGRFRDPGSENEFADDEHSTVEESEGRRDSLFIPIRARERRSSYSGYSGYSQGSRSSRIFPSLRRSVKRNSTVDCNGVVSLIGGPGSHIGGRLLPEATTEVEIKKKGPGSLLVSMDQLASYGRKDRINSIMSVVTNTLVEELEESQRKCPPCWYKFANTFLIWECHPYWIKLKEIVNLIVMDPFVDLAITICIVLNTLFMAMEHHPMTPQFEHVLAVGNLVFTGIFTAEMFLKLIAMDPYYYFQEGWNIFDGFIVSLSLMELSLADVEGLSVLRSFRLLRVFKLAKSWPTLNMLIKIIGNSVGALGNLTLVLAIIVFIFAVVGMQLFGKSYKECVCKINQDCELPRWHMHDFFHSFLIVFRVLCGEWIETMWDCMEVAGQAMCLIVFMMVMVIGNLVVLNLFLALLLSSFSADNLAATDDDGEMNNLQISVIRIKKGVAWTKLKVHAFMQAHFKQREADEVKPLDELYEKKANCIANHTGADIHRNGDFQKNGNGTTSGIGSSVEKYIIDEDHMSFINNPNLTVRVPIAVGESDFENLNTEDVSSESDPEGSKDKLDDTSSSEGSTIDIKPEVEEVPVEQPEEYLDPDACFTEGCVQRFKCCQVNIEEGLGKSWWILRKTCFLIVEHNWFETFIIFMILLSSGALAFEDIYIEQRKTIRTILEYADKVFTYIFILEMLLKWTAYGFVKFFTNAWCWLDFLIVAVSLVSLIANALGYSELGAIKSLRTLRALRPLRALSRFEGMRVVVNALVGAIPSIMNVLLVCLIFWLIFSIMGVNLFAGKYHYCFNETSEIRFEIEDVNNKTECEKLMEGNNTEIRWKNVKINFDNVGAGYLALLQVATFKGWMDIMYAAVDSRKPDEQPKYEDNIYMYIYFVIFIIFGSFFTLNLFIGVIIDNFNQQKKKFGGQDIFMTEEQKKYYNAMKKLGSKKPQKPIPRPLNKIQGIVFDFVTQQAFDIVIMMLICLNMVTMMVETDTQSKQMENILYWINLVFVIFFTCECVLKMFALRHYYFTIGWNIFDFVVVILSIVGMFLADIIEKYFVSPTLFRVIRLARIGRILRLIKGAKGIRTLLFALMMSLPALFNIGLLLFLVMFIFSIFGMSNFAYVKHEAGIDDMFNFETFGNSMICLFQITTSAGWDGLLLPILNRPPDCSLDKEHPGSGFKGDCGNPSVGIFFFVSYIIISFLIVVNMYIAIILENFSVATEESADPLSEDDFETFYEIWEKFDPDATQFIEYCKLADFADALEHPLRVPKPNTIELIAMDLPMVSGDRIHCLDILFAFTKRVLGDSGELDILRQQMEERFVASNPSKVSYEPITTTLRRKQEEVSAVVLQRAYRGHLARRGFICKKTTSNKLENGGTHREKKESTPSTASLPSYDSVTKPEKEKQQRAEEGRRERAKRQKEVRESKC

SMILES: COc1cc(-c2coc3cc(O)cc(O)c3c2=O)ccc1O [3’-O-methylorobol]
- IC50 [1]: 3.46 µM
- inhibition at 10 µM [2]: 23%
- inhibition at 10 µM [3]: 39%
